Results on 64 compounds are retold here after patent publication US6620828B2, “Thiazole compounds and pharmaceutical compositions for inhibiting protein kinases and methods for their use” (Agouron Pharmaceuticals, Inc., priority 1999, dated 2003).

Broadly, the inhibition is the relative decrease from the control value, in per cent.

The subject of the assay is human umbilical vein endothelial cells (HUVEC). The assay can be described thus: HUVEC proliferation assay. The note with it: Homo sapiens, HUVEC, Table I screening results; 150 nM; crude combinatorial amide library. Format: cell-based. In a few lines: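 Readout was MTT dye reduction (A595) after 72 h of stimulation with VEGF at 6 ng/ml final. Compound, in 0.1% DMSO final, was added 1 h before VEGF to HUVEC starved 24 h in 1% FBS. % inhibition was scaled between VEGF-alone and unstimulated wells; IC50 was fitted from triplicate dose curves.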
Regarding `COc1cc(Nc2nc(N)c(-c3nc(-c4cccc(NC(=O)C5CCCCC5)c4)cs3)s2)cc(OC)c1OC`, the inhibition at 0.15 µM was -24%. In the case of `COc1cc(Nc2nc(N)c(-c3nc(-c4cccc(NC(=O)c5ccc(-c6ccccc6)cc5)c4)cs3)s2)cc(OC)c1OC`, the inhibition at 0.15 µM was -32%. Regarding `COc1cc(Nc2nc(N)c(-c3nc(-c4cccc(NC(=O)CC5CCCCC5)c4)cs3)s2)cc(OC)c1OC`, the inhibition at 0.15 µM was 3%. In the case of `COc1cc(Nc2nc(N)c(-c3nc(-c4cccc(NC(=O)c5cc6cc(Cl)ccc6[nH]5)c4)cs3)s2)cc(OC)c1OC`, the inhibition at 0.15 µM stood at 0%. The result for `COc1cc(Nc2nc(N)c(-c3nc(-c4cccc(NC(=O)CCC5CCCCC5)c4)cs3)s2)cc(OC)c1OC` reads 8%. The result for `COc1cc(Nc2nc(N)c(-c3nc(-c4cccc(NC(=O)/C=C/c5ccccc5)c4)cs3)s2)cc(OC)c1OC` reads 36%; that for `COc1cc(Nc2nc(N)c(-c3nc(-c4cccc(NC(=O)CC(c5ccccc5)c5ccccc5)c4)cs3)s2)cc(OC)c1OC`, 10%; that for `COc1cc(Nc2nc(N)c(-c3nc(-c4cccc(NC(=O)c5ccoc5)c4)cs3)s2)cc(OC)c1OC`, 7%.

With `COc1cc(Nc2nc(N)c(-c3nc(-c4cccc(NC(=O)c5ccco5)c4)cs3)s2)cc(OC)c1OC`, the inhibition at 0.15 µM was 15%. The result for `COc1cc(Nc2nc(N)c(-c3nc(-c4cccc(NC(=O)CCc5nc6ccccc6[nH]5)c4)cs3)s2)cc(OC)c1OC` reads 27%; that for `COc1cc(Nc2nc(N)c(-c3nc(-c4cccc(NC(=O)c5csc(-c6cccnc6)n5)c4)cs3)s2)cc(OC)c1OC`, 38%; that for `COc1cc(Nc2nc(N)c(-c3nc(-c4cccc(NC(=O)c5ccc(C(=O)C(F)(F)F)cc5)c4)cs3)s2)cc(OC)c1OC`, 26%.

As for `COc1cc(Nc2nc(N)c(-c3nc(-c4cccc(NC(=O)Cc5ccc6c(c5)OCO6)c4)cs3)s2)cc(OC)c1OC`, the inhibition at 0.15 µM was 46%. Turning to `COC(=O)c1ccc(C(=O)Nc2cccc(-c3csc(-c4sc(Nc5cc(OC)c(OC)c(OC)c5)nc4N)n3)c2)cc1`, the inhibition at 0.15 µM came to 23%. `COc1cc(Nc2nc(N)c(-c3nc(-c4cccc(NC(=O)CCC(C)C)c4)cs3)s2)cc(OC)c1OC`: the inhibition at 0.15 µM is 39%. On to `COc1cc(Nc2nc(N)c(-c3nc(-c4cccc(NC(=O)c5cccc(C#N)c5)c4)cs3)s2)cc(OC)c1OC`, for which the inhibition at 0.15 µM worked out at 56%. Then `COc1cc(Nc2nc(N)c(-c3nc(-c4cccc(NC(=O)c5ccc(C#N)cc5)c4)cs3)s2)cc(OC)c1OC`, with 34%; and `COc1cc(Nc2nc(N)c(-c3nc(-c4cccc(NC(=O)Cc5ccccc5Cl)c4)cs3)s2)cc(OC)c1OC`, with 34%. Then `COc1cc(Nc2nc(N)c(-c3nc(-c4cccc(NC(=O)c5ccc(SC)cc5)c4)cs3)s2)cc(OC)c1OC`, with 31%. The result for `COc1cc(Nc2nc(N)c(-c3nc(-c4cccc(NC(=O)c5cnc(Cl)c(Cl)c5)c4)cs3)s2)cc(OC)c1OC` reads 20%; that for `COc1ccc(CCC(=O)Nc2cccc(-c3csc(-c4sc(Nc5cc(OC)c(OC)c(OC)c5)nc4N)n3)c2)cc1OC`, 23%. Regarding `COc1ccccc1CC(=O)Nc1cccc(-c2csc(-c3sc(Nc4cc(OC)c(OC)c(OC)c4)nc3N)n2)c1`, the inhibition at 0.15 µM stood at 58%. Consider `COc1cc(CC(=O)Nc2cccc(-c3csc(-c4sc(Nc5cc(OC)c(OC)c(OC)c5)nc4N)n3)c2)cc(OC)c1OC`, for which the inhibition at 0.15 µM came out at 29%. Then `COc1cc(Nc2nc(N)c(-c3nc(-c4cccc(NC(=O)Cc5ccc(F)cc5)c4)cs3)s2)cc(OC)c1OC`, with -7%; and `COc1cc(Nc2nc(N)c(-c3nc(-c4cccc(NC(=O)CCOc5ccccc5)c4)cs3)s2)cc(OC)c1OC`, with 11%. On to `COc1cc(Nc2nc(N)c(-c3nc(-c4cccc(NC(=O)/C=C/c5ccc(Cl)cc5)c4)cs3)s2)cc(OC)c1OC`, for which the inhibition at 0.15 µM turned out to be 40%. Then `COc1ccccc1/C=C\C(=O)Nc1cccc(-c2csc(-c3sc(Nc4cc(OC)c(OC)c(OC)c4)nc3N)n2)c1`, with 53%; and `COc1cc(Nc2nc(N)c(-c3nc(-c4cccc(NC(=O)C(Cc5ccccc5)c5ccccc5)c4)cs3)s2)cc(OC)c1OC` (stereo not shown), with 11%. The result for `COc1cc(Nc2nc(N)c(-c3nc(-c4cccc(NC(=O)CCC5CCCC5)c4)cs3)s2)cc(OC)c1OC` reads 85%; that for `COc1cc(Nc2nc(N)c(-c3nc(-c4cccc(NC(=O)C(=O)Cc5ccccc5)c4)cs3)s2)cc(OC)c1OC`, 20%. The result for `C/C=C/CC(=O)Nc1cccc(-c2csc(-c3sc(Nc4cc(OC)c(OC)c(OC)c4)nc3N)n2)c1` reads 38%; that for `COc1cc(Nc2nc(N)c(-c3nc(-c4cccc(NC(=O)C5C(C=C(C)C)C5(C)C)c4)cs3)s2)cc(OC)c1OC` (stereo not shown), 19%; that for `COc1cc(Nc2nc(N)c(-c3nc(-c4cccc(NC(=O)c5ccc(C)c(Br)c5)c4)cs3)s2)cc(OC)c1OC`, 86%.

Turning to `COc1ccc(C(=O)Nc2cccc(-c3csc(-c4sc(Nc5cc(OC)c(OC)c(OC)c5)nc4N)n3)c2)cc1F`, the inhibition at 0.15 µM worked out at 51%. The result for `COc1cc(Nc2nc(N)c(-c3nc(-c4cccc(NC(=O)c5scc(S(=O)(=O)c6ccc(Cl)cc6)c5C)c4)cs3)s2)cc(OC)c1OC` reads 10%; that for `COc1cc(Nc2nc(N)c(-c3nc(-c4cccc(NC(=O)C5CCCC5)c4)cs3)s2)cc(OC)c1OC`, 12%; that for `CCOC(=O)/C=C/C(=O)Nc1cccc(-c2csc(-c3sc(Nc4cc(OC)c(OC)c(OC)c4)nc3N)n2)c1`, 27%. For the compound `COc1cc(Nc2nc(N)c(-c3nc(-c4cccc(NC(=O)Cc5cccc(C)c5)c4)cs3)s2)cc(OC)c1OC`, the inhibition at 0.15 µM was 75%. Then `COc1cc(Nc2nc(N)c(-c3nc(-c4cccc(NC(=O)C5C6CC7C(C6=O)C75)c4)cs3)s2)cc(OC)c1OC` (stereo not shown), with -6%; and `COc1cc(Nc2nc(N)c(-c3nc(-c4cccc(NC(=O)c5ccc6c(c5)OC(F)(F)O6)c4)cs3)s2)cc(OC)c1OC`, with 72%. With `COc1cc(Nc2nc(N)c(-c3nc(-c4cccc(NC(=O)C5CC(=O)N5)c4)cs3)s2)cc(OC)c1OC` (stereo not shown), the inhibition at 0.15 µM was -2%. For `CCOC(=O)c1cc(C(=O)Nc2cccc(-c3csc(-c4sc(Nc5cc(OC)c(OC)c(OC)c5)nc4N)n3)c2)cc(C(=O)OCC)c1`, the inhibition at 0.15 µM was 6%. Then `COc1cc(Nc2nc(N)c(-c3nc(-c4cccc(NC(=O)c5cc6c(cc5C)C(C)(C)C(C)CC6(C)C)c4)cs3)s2)cc(OC)c1OC` (stereo not shown), with 7%; and `COc1cc(Nc2nc(N)c(-c3nc(-c4cccc(NC(=O)c5ccc6c(c5)C(=O)N(C)C6=O)c4)cs3)s2)cc(OC)c1OC`, with -3%; and `COc1cc(Nc2nc(N)c(-c3nc(-c4cccc(NC(=O)c5ccc6c(c5)C(=O)NC6=O)c4)cs3)s2)cc(OC)c1OC`, with -6%. `COc1cc(Nc2nc(N)c(-c3nc(-c4cccc(NC(=O)C#Cc5ccccc5)c4)cs3)s2)cc(OC)c1OC`: the inhibition at 0.15 µM is -25%. Then `COc1cc(Nc2nc(N)c(-c3nc(-c4cccc(NC(=O)Cc5ccccc5F)c4)cs3)s2)cc(OC)c1OC`, with 21%; and `COc1cc(Nc2nc(N)c(-c3nc(-c4cccc(NC(=O)Cc5cccnc5)c4)cs3)s2)cc(OC)c1OC`, with -20%; and `COc1cc(Nc2nc(N)c(-c3nc(-c4cccc(NC(=O)/C=C/c5ccccn5)c4)cs3)s2)cc(OC)c1OC`, with -7%. Then `COc1cc(Nc2nc(N)c(-c3nc(-c4cccc(NC(=O)Cc5cc(F)ccc5F)c4)cs3)s2)cc(OC)c1OC`, with 49%; and `COc1cccc(CC(=O)Nc2cccc(-c3csc(-c4sc(Nc5cc(OC)c(OC)c(OC)c5)nc4N)n3)c2)c1`, with 12%; and `COc1cc(Nc2nc(N)c(-c3nc(-c4cccc(NC(=O)Cc5cc(C)ccc5C)c4)cs3)s2)cc(OC)c1OC`, with 12%. With `COc1cc(Nc2nc(N)c(-c3nc(-c4cccc(NC(=O)C5C[C@@H]6C=C[C@H]5C6)c4)cs3)s2)cc(OC)c1OC` (stereo partly shown), the inhibition at 0.15 µM stood at 37%. For `COC(=O)c1cccc(C(=O)Nc2cccc(-c3csc(-c4sc(Nc5cc(OC)c(OC)c(OC)c5)nc4N)n3)c2)c1`, the inhibition at 0.15 µM turned out to be 42%. On to `COC(=O)c1ccc(C(=O)Nc2cccc(-c3csc(-c4sc(Nc5cc(OC)c(OC)c(OC)c5)nc4N)n3)c2)nc1`, for which the inhibition at 0.15 µM is 20%. Then `COc1cc(Nc2nc(N)c(-c3nc(-c4cccc(NC(=O)c5c[nH]cn5)c4)cs3)s2)cc(OC)c1OC`, with 15%; and `COc1cc(OC)cc(C(=O)Nc2cccc(-c3csc(-c4sc(Nc5cc(OC)c(OC)c(OC)c5)nc4N)n3)c2)c1`, with 51%; and `COc1cc(Nc2nc(N)c(-c3nc(-c4cccc(NC(=O)CCc5ccc(C)cc5)c4)cs3)s2)cc(OC)c1OC`, with 25%. Then `COc1cc(Nc2nc(N)c(-c3nc(-c4cccc(NC(=O)C5Cc6ccccc65)c4)cs3)s2)cc(OC)c1OC` (stereo not shown), with 56%; and `COc1cc(Nc2nc(N)c(-c3nc(-c4cccc(NC(=O)c5cc(C)cc(C)c5)c4)cs3)s2)cc(OC)c1OC`, with 78%; and `COc1cc(Nc2nc(N)c(-c3nc(-c4cccc(NC(=O)c5ccc(NC(C)=O)cc5)c4)cs3)s2)cc(OC)c1OC`, with 16%. With `COc1cc(Nc2nc(N)c(-c3nc(-c4cccc(NC(=O)c5ccc(C(C)(C)C)cc5)c4)cs3)s2)cc(OC)c1OC`, the inhibition at 0.15 µM amounted to 26%. For `COc1cc(Nc2nc(N)c(-c3nc(-c4cccc(NC(=O)c5ccc(C)cc5)c4)cs3)s2)cc(OC)c1OC`, the inhibition at 0.15 µM worked out at 66%. The result for `COc1cc(Nc2nc(N)c(-c3nc(-c4cccc(NC(=O)CC(C)c5ccccc5)c4)cs3)s2)cc(OC)c1OC` (stereo not shown) reads 26%.
